Molecules are shown by their SMILES. pIC50: −log10 of the molar value.

Assay [1] relates to CyPPO13 (Synechococcus sp. JA-3-3Ab PPO, SEQ ID NO: 4) variant F373I, MBP fusion. As to the kind of experiment: PPO inhibition assay. The settings on record: herbicide 0-5,000 nM, 50 μM substrate. It counts as biochemical. As for the experimental part:
(§1) The enzyme activities of PPO protein and PPO protein variants were examined, and inhibition assay by PPO-inhibiting herbicides was conducted. It was confirmed that the PPO protein has low water-solubility, but in case of being expressed as a fusion protein with MBP (maltose binding protein) (MBP-PPO), the PPO protein is able to be stably expressed as water-soluble form. Therefore, the wild type and variant proteins which were expressed in the form of fusion protein with MBP were used in the present test (refer to FIG. 4).
(§2) At first, a substrate of PPO protein, Protoporphyrinogen IX was synthesized. This process was performed in the space where nitrogen gas is streamed. 6 mg of protoporphyrin IX was dissolved in 20% (v/v) EtOH 20 ml, and stirred under dark condition for 30 minutes. The obtained protoporphyrinogen IX solution was put into a 15 ml screw tube in an amount of 800 and flushed with nitrogen gas for 5 minutes. To this, 1 g of sodium amalgam was added and vigorous shaking was performed for 2 minutes. The lid was open to exhaust hydrogen gas in the tube. Thereafter, the lid was closed and incubated for 3 minutes. The […] was filtered using syringe and cellulose membrane filter. To 600 μl of the obtained […], 2M MOPS [3-(N-morpholino)propanesulfonic acid] was added in an amount of approximately 300 thereby adjusting pH to 8.0. To determine the enzyme activity of PPO protein, a reaction mixture was prepared with the following composition (based on 10 ml): 50 mM Tris-Cl (pH 8.0); 50 mM NaCl; 0.04% (v/v) Tween 20; 40 mM glucose (0.072 g); 5 units glucose oxidase (16.6 mg); and 10 units catalase (1 μl).
(§3) Two hundred microliters (200 μl) of reaction mixture containing a purified PPO protein were placed in 96 well plates, and preincubated for 30 min at room temperature to reduce the oxygen concentration by the reaction of glucose oxidase-catalase. The mineral oil was layered and then the reaction was initiated by adding the substrate, protoporphyrin IX solution, to a final concentration of 50 μM. The reaction proceeded at room temperature for 30 min and the fluorescence of protoporphyrin IX was measured using Microplate reader (Sense, Hidex) (excitation: 405 nm; emission: 633 nm). To calculate the PPO enzyme activity, protoporphyrinogen IX solution was kept open in the air to oxidize the solution (overnight). To this, 2.7N HCl was added, and the absorbance at 408 nm was measured. A standard curve was generated using standard protoporphyrin IX, and the PPO activity was measured by calibration of protoporphyrin IX using the standard curve of protoporphyrin IX.
(§4) The final concentration of each herbicide was as follows: […]

For assay [2], the system named is CyPPO13 (Synechococcus sp. JA-3-3Ab PPO, SEQ ID NO: 4) variant F373L, MBP fusion. The assay can be described thus: PPO inhibition assay. It counts as biochemical. The settings on record: herbicide 0-5,000 nM, 50 μM substrate. As for the experimental part: as §1, §2, §3, §4
Assay [3] has as its system CyPPO13 (Synechococcus sp. JA-3-3Ab PPO, SEQ ID NO: 4) variant F373M, MBP fusion. As to the kind of experiment: PPO inhibition assay. It counts as biochemical. The settings on record: herbicide 0-5,000 nM, 50 μM substrate.
For assay [4], the system named is soybean transformed with CyPPO10 A167L+F360M. As to the kind of experiment: Herbicide tolerance of soybean. To be noted: T1, 150 μM saflufenacil spray, 5 days. It counts as in vivo.
In assay [5] the test system is BT3 (ΔPPO) E. coli with CyPPO10m-6 (E225G, G258S, Q266L, T336I, V356F, F360M, A364D, R406G, W419R; SEQ ID NO: 131). The assay can be described thus: Growth of BT3 with error-prone PCR mutant of CyPPO10. To be noted: up to 200 μM herbicide. It counts as cell-based.
For assay [6], the target named is CyPPO10 (Thermosynechococcus elongatus BP-1 PPO, SEQ ID NO: 2) variant F360M, MBP fusion (Thermosynechococcus vestitus, UniProt Q8DLV2, F360M). As to the kind of experiment: biochemical.
Assay [7] deals with CyPPO10 (Thermosynechococcus elongatus BP-1 PPO, SEQ ID NO: 2), wild type, MBP fusion (Thermosynechococcus vestitus, UniProt Q8DLV2). The assay can be described thus: PPO inhibition assay. It counts as biochemical.
The test system of assay [8] is CyPPO13 (Synechococcus sp. JA-3-3Ab PPO, SEQ ID NO: 4), wild type, MBP fusion. The assay can be described thus: PPO inhibition assay. It counts as biochemical. The settings on record: herbicide 0-5,000 nM, 50 μM substrate.
For assay [9], the target named is CyPPO10 (Thermosynechococcus elongatus BP-1 PPO, SEQ ID NO: 2) variant R89A + F360I, MBP fusion (Thermosynechococcus vestitus, UniProt Q8DLV2, F360I/R89A). As to the kind of experiment: biochemical.
The target of assay [10] is CyPPO10 (Thermosynechococcus elongatus BP-1 PPO, SEQ ID NO: 2) variant R89A + F360M, MBP fusion (Thermosynechococcus vestitus, UniProt Q8DLV2, F360M/R89A). As to the kind of experiment: biochemical. The settings on record: herbicide 0-5,000 nM, 50 μM substrate.
The target in assay [11] is CyPPO10 (Thermosynechococcus elongatus BP-1 PPO, SEQ ID NO: 2) variant F360I, MBP fusion (Thermosynechococcus vestitus, UniProt Q8DLV2, F360I). As to the kind of experiment: PPO inhibition assay. It counts as biochemical.
Assay [12] addresses A. thaliana PPO1 (AtPPO1) (Arabidopsis thaliana, UniProt P55826). As to the kind of experiment: Michaelis-Menten kinetics of PPO (plant control). It counts as biochemical. The settings on record: protoporphyrinogen IX oxidation.
For assay [13], the target named is T1, CyPPO10 (Thermosynechococcus elongatus BP-1 protoporphyrinogen oxidase, wild type, SEQ ID NO: 2), MBP fusion (Thermosynechococcus vestitus, UniProt Q8DLV2).
T1 construct: kinetics with protoporphyrinogen IX
The assay can be described thus: Michaelis-Menten kinetics of purified PPO. To be noted: protoporphyrinogen IX oxidation, room temperature, pH 8.0. It counts as biochemical. The protocol:
as §1
At first, a substrate of PPO protein, Protoporphyrinogen IX was synthesized. This process was performed in the space where nitrogen gas is streamed. […]
as §3, with “The mineral oil was layered and then the reaction was initiated by adding the substrate, protoporphyrin IX solution, to a final concentration of 50 μM.” left out, “To calculate the PPO enzyme activity, protoporphyrinogen IX solution was kept open in the air to oxidize the solution (overnight).” left out, “IX. […]” for “IX.”

In the next assay the test system is Amaranthus PPO1. The assay can be described thus: Michaelis-Menten kinetics of PPO (plant control). To be noted: protoporphyrinogen IX oxidation. It counts as biochemical.
The subject of assay [14] is CyPPO13 (Synechococcus sp. JA-3-3Ab protoporphyrinogen oxidase, wild type, SEQ ID NO: 4), MBP fusion. The assay can be described thus: Michaelis-Menten kinetics of purified PPO. It counts as biochemical. To be noted: protoporphyrinogen IX oxidation, room temperature, pH 8.0.

Sequence of CyPPO10 (Thermosynechococcus elongatus BP-1 PPO, SEQ ID NO: 2) variant F360M, MBP fusion (Q8DLV2 entry or part of it F360M): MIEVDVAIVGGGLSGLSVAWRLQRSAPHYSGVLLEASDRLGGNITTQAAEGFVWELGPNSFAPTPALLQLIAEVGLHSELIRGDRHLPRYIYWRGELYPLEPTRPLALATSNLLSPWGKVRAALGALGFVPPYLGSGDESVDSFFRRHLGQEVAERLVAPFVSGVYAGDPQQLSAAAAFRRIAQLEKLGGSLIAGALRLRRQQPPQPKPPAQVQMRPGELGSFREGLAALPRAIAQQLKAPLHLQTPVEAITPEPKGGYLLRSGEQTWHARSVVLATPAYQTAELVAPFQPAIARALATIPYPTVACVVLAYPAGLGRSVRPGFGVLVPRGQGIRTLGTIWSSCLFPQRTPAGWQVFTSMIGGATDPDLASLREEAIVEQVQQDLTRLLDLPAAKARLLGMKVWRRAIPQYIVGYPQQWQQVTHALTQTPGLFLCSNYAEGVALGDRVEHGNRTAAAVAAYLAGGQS
T1 sequence (Q8DLV2 1-467): as the sequence (Q8DLV2 entry or part of it F360M) above, with M360F counted along it
Sequence of CyPPO10 (Thermosynechococcus elongatus BP-1 PPO, SEQ ID NO: 2), wild type, MBP fusion (Q8DLV2 1-467): as the sequence (Q8DLV2 entry or part of it F360M) above, with M360F counted along it
Sequence of CyPPO10 (Thermosynechococcus elongatus BP-1 PPO, SEQ ID NO: 2) variant F360I, MBP fusion (Q8DLV2 entry or part of it F360I): as the sequence (Q8DLV2 entry or part of it F360M) above, with M360I counted along it
Sequence of CyPPO10 (Thermosynechococcus elongatus BP-1 PPO, SEQ ID NO: 2) variant R89A + F360I, MBP fusion (Q8DLV2 entry or part of it R89A/F360I): as the sequence (Q8DLV2 entry or part of it F360M) above, with R89A, M360I counted along it
Sequence of A. thaliana PPO1 (AtPPO1) (P55826 35-537): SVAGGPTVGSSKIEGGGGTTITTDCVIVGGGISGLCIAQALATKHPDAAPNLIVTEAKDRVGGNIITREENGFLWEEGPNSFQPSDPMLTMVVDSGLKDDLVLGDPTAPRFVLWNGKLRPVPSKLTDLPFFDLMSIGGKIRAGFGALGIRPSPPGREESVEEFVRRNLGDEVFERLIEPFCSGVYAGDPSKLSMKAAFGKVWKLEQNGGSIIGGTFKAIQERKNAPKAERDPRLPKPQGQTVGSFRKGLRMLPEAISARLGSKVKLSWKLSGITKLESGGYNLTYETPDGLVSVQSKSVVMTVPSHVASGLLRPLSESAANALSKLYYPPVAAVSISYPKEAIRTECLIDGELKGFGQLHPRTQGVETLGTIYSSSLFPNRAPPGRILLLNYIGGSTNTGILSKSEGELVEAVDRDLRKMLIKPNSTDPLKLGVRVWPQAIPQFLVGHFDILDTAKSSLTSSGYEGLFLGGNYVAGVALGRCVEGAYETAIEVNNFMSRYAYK
Sequence of CyPPO10 (Thermosynechococcus elongatus BP-1 PPO, SEQ ID NO: 2) variant R89A + F360M, MBP fusion (Q8DLV2 entry or part of it R89A/F360M): as the sequence (Q8DLV2 entry or part of it F360M) above, with R89A counted along it

Consider `CC(C)N(C)S(=O)(=O)NC(=O)c1cc(-n2c(=O)cc(C(F)(F)F)n(C)c2=O)c(F)cc1Cl` [Saflufenacil], for which the values for the negative logarithm of the IC50 (pIC50) in [1], in assay [2] and in assay [3] were 5.83, 5.83 and 6.32, respectively. Besides, the damage level result in assay [4] is recorded as “no damage”. In assay [5], the cell viability entry is on record as “cell viability similar to that of cells with wild type CyPPO10”.

Regarding `C=CCOC(=O)C(C)(C)OC(=O)c1cc(-n2c(=O)cc(C(F)(F)F)n(C)c2=O)ccc1Cl` [Butafenacil], the negative logarithm of the IC50 (pIC50) – broadly, the negative decadic logarithm of the IC50, by convention in mol/L – is 7.62 in assay [6]; 8.10 in assay [7]; 7.43 in assay [8]; 5.88 in assay [9]; 6.17 in assay [10]; 6.57 in assay [11].

In the case of `C=Cc1c2[nH]c(c1C)Cc1[nH]c(c(CCC(=O)O)c1C)Cc1[nH]c(c(C)c1CCC(=O)O)Cc1[nH]c(c(C)c1C=C)C2` [Protoporphyrinogen IX], the Vmax in assay [12] came to 134.4 ± 19 μM mg protein^−1 min^−1; in [13], 949.1 ± 64 μM mg protein^−1 min^−1; in the assay on Amaranthus PPO1 it was 57 ± 7 μM mg protein^−1 min^−1; in assay [14], 341.4 ± 14 μM mg protein^−1 min^−1.

(Values after US11466286B2, “Methods and compositions for conferring and/or enhancing herbicide tolerance using protoporphyrinogen oxidase or variant thereof” (FarmHannong Co., Ltd., priority 2016, dated 2022).)
